Values quoted from earlier work as cited in article PMC4104431 (Nuclear medicine and biology, 2014).

Tests used:
[1] = target: CXCR4 (Homo sapiens, UniProt P61073)
Chain of CXCR4 (P61073 whole entry): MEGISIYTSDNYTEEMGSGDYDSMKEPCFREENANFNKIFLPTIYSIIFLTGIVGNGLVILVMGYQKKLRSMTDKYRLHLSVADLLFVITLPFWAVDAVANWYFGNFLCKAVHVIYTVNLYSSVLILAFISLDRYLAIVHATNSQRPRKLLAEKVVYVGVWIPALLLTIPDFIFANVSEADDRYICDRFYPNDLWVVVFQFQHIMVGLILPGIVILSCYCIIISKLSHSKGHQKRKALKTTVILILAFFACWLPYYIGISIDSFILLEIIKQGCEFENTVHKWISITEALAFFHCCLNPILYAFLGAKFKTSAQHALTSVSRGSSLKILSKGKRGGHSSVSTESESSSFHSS

## c1cc(CN2CCCNCCNCCCNCC2)ccc1CN1CCCNCCNCCCNCC1 [AMD3100]
other
  Metabolic stability: metabolically stable
[1]
  Fold increase in affinity for CXCR4 when bound to Cu(II): 7 fold

## c1ccc(CNCc2ccc(CN3CCCNCCNCCCNCC3)cc2)nc1 [AMD3465]
other
  Metabolic stability: metabolically stable
